This note sets out measurements from patent US11357246B2, “High intensity sweeteners” (Firmenich Incorporated, priority 2015, dated 2022).

Read-outs that look alike come from different tables or passages of the source.

The nature of assay [1]: Paired comparison testing (2-AFC) of sweet intensity versus 300 ppm Rebaudioside A by trained panelists. Type of assay: in vivo. As to conditions: for Sample selected as sweeter by panelists, Total: LSB pH ~7.1; for Sweetness compared with 300 ppm Rebaudioside A (2-AFC): 0.25 mL sample, LSB pH ~7.1, 0% ethanol. The protocol:
Paired comparison tests (2-Alternative Forced Choice difference tests, i.e., 2-AFC) were used to determine sweet intensity equivalence between samples prepared with Rebaudioside A and the test sweet compound. Trained external panelists were used for the taste tests.
2-AFC tests, compound solutions were tested against 300 ppm Rebaudioside A to determine how they matched in sweet intensity. Panelists tasted both samples and indicated which sample was sweeter in each pair. Panelists rinsed their mouths with water prior to starting any test. Samples were presented to panelists in randomized, counterbalanced pairs and were labeled with 3-digit blinding codes. Panelists rinsed with water between samples as well as between pairs. There was a 90 second delay to clear the mouth of any tastes after each pair evaluation. Three replicates of each test were performed.
The 2-AFC data was analyzed to determine significant differences between 300 ppm Rebaudioside A and compound solutions using a probability table for a two-tailed test (alpha=0.05).
The paired comparison testing was performed using a 0.25 mL sample size, and all samples were made with Low Sodium Buffer (LSB) pH ˜7.1 and contain 0% ethanol.

In a further assay the target is T1, hT1R2/hT1R3 (Homo sapiens, UniProt Q7RTX0+Q8TE23).
T1 construct: expressed in transfected cells; parental cells lack the receptor
T1 sequence (Q8TE23 20-839): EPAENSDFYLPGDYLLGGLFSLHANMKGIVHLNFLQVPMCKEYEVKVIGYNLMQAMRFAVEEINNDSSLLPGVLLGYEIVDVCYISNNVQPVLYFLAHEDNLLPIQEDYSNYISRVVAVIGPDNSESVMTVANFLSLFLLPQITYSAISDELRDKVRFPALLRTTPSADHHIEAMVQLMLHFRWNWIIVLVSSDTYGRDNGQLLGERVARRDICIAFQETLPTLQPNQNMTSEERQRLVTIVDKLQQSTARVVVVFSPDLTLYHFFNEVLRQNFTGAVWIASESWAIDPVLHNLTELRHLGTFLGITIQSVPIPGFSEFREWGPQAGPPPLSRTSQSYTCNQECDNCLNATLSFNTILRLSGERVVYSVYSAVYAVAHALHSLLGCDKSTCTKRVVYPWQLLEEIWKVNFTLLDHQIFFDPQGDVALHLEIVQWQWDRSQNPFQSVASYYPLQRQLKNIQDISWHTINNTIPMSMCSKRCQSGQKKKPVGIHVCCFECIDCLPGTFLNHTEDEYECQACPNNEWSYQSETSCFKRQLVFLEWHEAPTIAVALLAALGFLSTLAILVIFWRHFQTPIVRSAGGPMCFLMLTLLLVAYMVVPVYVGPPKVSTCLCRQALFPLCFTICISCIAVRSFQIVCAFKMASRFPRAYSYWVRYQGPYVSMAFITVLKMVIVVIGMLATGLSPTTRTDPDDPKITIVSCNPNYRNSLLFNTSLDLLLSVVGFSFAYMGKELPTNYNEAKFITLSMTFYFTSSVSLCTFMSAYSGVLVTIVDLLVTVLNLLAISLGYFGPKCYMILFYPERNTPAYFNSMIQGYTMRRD
T1 sequence (Q7RTX0 21-852): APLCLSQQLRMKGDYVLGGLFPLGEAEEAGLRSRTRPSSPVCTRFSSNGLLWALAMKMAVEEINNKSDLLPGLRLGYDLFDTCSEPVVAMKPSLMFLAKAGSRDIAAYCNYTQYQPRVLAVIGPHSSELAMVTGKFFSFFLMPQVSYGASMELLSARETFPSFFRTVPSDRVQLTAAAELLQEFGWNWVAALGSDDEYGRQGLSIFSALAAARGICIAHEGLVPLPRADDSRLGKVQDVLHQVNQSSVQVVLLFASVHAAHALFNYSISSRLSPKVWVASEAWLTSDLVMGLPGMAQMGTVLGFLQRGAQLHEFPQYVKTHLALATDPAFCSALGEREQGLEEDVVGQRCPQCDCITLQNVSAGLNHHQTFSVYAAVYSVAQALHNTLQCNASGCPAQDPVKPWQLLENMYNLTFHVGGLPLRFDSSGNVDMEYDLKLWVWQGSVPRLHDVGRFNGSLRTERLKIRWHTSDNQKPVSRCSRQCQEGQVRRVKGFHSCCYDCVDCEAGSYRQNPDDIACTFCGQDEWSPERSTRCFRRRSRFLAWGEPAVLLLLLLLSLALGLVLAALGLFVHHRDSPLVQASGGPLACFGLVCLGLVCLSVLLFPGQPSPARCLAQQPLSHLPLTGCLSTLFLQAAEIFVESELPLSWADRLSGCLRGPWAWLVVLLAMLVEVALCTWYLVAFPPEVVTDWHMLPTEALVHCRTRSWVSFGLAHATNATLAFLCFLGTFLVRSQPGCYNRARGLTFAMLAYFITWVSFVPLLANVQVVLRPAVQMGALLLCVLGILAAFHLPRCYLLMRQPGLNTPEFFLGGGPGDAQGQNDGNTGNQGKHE
Description: HTS-Sweet: FLIPR calcium fluorometric imaging assay in cells stably expressing the human sweet taste receptor and a promiscuous G protein. Type of assay: cell-based. The protocol: Compound activity (EC50) was determined using an automated fluorometric imaging assay on a FLIPR instrument (Fluorometric […] Plate Reader, Molecular Devices, Sunnyvale, Calif.). Cell stably expressing the human sweet taste receptor and a promiscuous G protein were seeded into 384-well plates (at approximately 40,000 cells per well). Cells were grown for 24 hours at 37° C. Cells were then loaded with the calcium dye Fluo-4AM (Molecular Probes, Eugene, Oreg.), 4 μM in a phosphate buffered saline (D-PBS) (Invitrogen, Carlsbad, Calif.), for 1 hour at room temperature. After replacement with 25 μl D-PBS, stimulation was performed in the FLIPR instrument and at room temperature by the addition of 25 μl D-PBS supplemented with different stimuli at concentrations corresponding to twice the desired final level. Receptor activity was quantified by determining the maximal fluorescence increases (using a 480 nm excitation and 535 nm emission) after normalization to basal fluorescence intensity measured before stimulation.
For dose-responses analysis, stimuli were presented in duplicates at 10 different concentrations ranging from 0.4 μM to 200 μM. EC50 s were determined using a non-linear regression algorithm, where the Hill slope, bottom asymptotes and top asymptotes were allowed to vary.

Setting [2] is: 300 ppm Compound 1 vs 300 ppm Rebaudioside A, n = 45 (15 panelists × 3 reps), p-value 0.072.
[3] abbreviates: 250 ppm Compound 18 vs 300 ppm Rebaudioside A, n = 36 (12 panelists × 3 reps), p-value 0.681.
The mark [4] stands for this setting: 300 ppm Compound 18 vs 300 ppm Rebaudioside A, n = 42 (14 panelists × 3 reps), p-value 0.044.

On to `C[C@H](CC[C@@H](O[C@@H]1O[C@H](CO)[C@@H](O)[C@H](O)[C@H]1O[C@@H]1O[C@H](CO)[C@@H](O)[C@H](O)[C@H]1O)C(C)(C)O)C1CC[C@@]2(C)C3CC=C4C(CC[C@H](O[C@@H]5O[C@H](CO)[C@@H](O[C@@H]6O[C@H](CO)[C@@H](O)[C@H](O)[C@H]6O)[C@H](O)[C@H]5O)C4(C)C)[C@]3(C)[C@H](O)C[C@]12C` (some centres unmarked) [Compound 1], for which the “Sample selected as sweeter by panelists, Total” value (“Sample selected as sweeter” for short) in assay [1] (setting [2]) stood at 16. In addition, the “Sweetness compared with 300 ppm Rebaudioside A (2-AFC)” value in assay [1] (test compound at 300 ppm) is recorded as “not significantly different in sweetness”.

On to `C[C@H](CC[C@@H](O[C@@H]1O[C@H](CO)[C@@H](O)[C@H](O)[C@H]1O[C@@H]1O[C@H](CO)[C@@H](O)[C@H](O[C@@H]2O[C@H](CO)[C@@H](O)[C@H](O)[C@H]2O)[C@H]1O)C(C)(C)O)C1CC[C@@]2(C)C3CC=C4C(CC[C@H](O[C@@H]5O[C@H](CO)[C@@H](O)[C@H](O[C@@H]6O[C@H](CO)[C@@H](O)[C@H](O)[C@H]6O)[C@H]5O)C4(C)C)[C@]3(C)[C@H](O)C[C@]12C` (some centres unmarked) [Compound 18], for which the “Sample selected as sweeter” value was determined as 20 in assay [1] (setting [3]) and 28 in assay [1] (setting [4]). Further, the “Sweetness compared with 300 ppm Rebaudioside A (2-AFC)” value in assay [1] (test compound at 250 ppm) is “not significantly different in sweetness”; in assay [1] (test compound at 300 ppm), “significantly sweeter”.

For the molecule `C=C1C[C@@]23CC[C@H]4[C@@](C)(CCC[C@@]4(C)C(=O)O[C@@H]4O[C@H](CO)[C@@H](O)[C@H](O)[C@H]4O)[C@@H]2CC[C@]1(O[C@@H]1O[C@H](CO)[C@@H](O)[C@H](O[C@@H]2O[C@H](CO)[C@@H](O)[C@H](O)[C@H]2O)[C@H]1O[C@@H]1O[C@H](CO)[C@@H](O)[C@H](O)[C@H]1O)C3` [Rebaudioside A, reference compound], the entries for the “Sample selected as sweeter” value in assay [1] (setting [3]), in assay [1] (setting [2]) and in assay [1] (setting [4]) were 16, 29 and 14, respectively.

With `C[C@H](CC[C@@H](O[C@@H]1O[C@H](CO[C@@H]2O[C@H](CO)[C@@H](O)[C@H](O)[C@H]2O)[C@@H](O[C@@H]2O[C@H](CO)[C@@H](O)[C@H](O)[C@H]2O)[C@H](O)[C@H]1O)C(C)(C)O)C1CC[C@@]2(C)C3CC=C4C(CC[C@H](O[C@@H]5C[C@H](COC6O[C@H](CO)[C@@H](O)[C@H](O)[C@H]6O)[C@@H](O)[C@H](O)[C@H]5O)C4(C)C)[C@]3(C)C(=O)C[C@]12C` (some centres unmarked) [Compound 29], the EC50 at hT1R2/hT1R3 (FLIPR, Fluo-4AM, 10 concentrations 0.4 μM to 200 μM in duplicates, read-out: Compound EC50s for hT1R2/hT1R3) is more than 30 µM.

With `C[C@H](CC[C@@H](O[C@@H]1O[C@H](CO[C@H]2O[C@H](CO)[C@@H](O)[C@H](O)[C@H]2O)[C@@H](O)[C@H](O)[C@H]1O[C@@H]1O[C@H](CO)[C@@H](O)[C@H](O)[C@H]1O)C(C)(C)O)C1CC[C@@]2(C)C3CC=C4C(CC[C@H](O[C@@H]5O[C@H](CO)[C@@H](O)[C@H](O)[C@H]5O)C4(C)C)[C@]3(C)[C@H](O)C[C@]12C` (some centres unmarked) [Compound 3], the EC50 on hT1R2/hT1R3 was less than 17 µM.
